Results published in patent US10562912B2 (C&C Research Laboratories, priority 2013, dated 2020).

Experiments:
Type in all cases: cell-based
[1] = biological target: T1, STAT3 (Homo sapiens, UniProt P40763); assay: STAT3 reporter gene assay (luciferase), LNCaP stable cell line (pSTAT3-TA-luc), IL-6 stimulation
T1 construct: plasmid pSTAT3-TA-luc), which contains a stably operating STAT3 promoter; endogenous in cells
Procedure, shortened: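 LNCaP cells stably carrying pSTAT3-TA-luc, in RPMI1640 with 3% DCC-FBS, were treated with compound and then stimulated with 10 ng/mL IL-6 for 24–48 h at 37 °C. Luciferase activity was measured in lysates. A parallel plate measured viability by CellTiter-Glo, with stimulated 0.1% DMSO wells as the positive control.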

[2] = tested on: LNCaP; assay: Cell growth inhibition assay, prostate cancer cell line LNCaP (medium with 10 ng/mL IL-6); details: Homo sapiens, medium supplemented with 10 ng/mL of IL-6, 10,000 cells/well
[3] = tested on: DU-145; assay: Cell growth inhibition assay, prostate cancer cell line DU-145; details: Homo sapiens, DU-145 prostate cancer cell line
Procedure, shortened: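 Cancer cells, counted and seeded at 3,000 (DU-145, HCT116) or 5,000 (SW626) cells/well, received graded compound concentrations. Plates incubated 72–96 h at 37° C. with 5% CO2 were then assayed with CellTiter-Glo.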

[4] = tested on: HEL92.1.7; assay: Cell growth inhibition assay, blood cancer cell line HEL92.1.7; details: Homo sapiens, HEL 92.1.7, HEL92.1.7 blood cancer cell line
Procedure, shortened: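 Cells were seeded at 3,000/well (HCT116, DU-145) or 5,000/well (SW626 and the others) and exposed to serial compound dilutions for 72 to 96 h at 37 °C under 5% CO2. Viability was read as CellTiter-Glo luminescence against 0.1% DMSO and cell-free wells.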

[5] = tested on: U266; assay: Cell growth inhibition assay, blood cancer cell line U266; details: Homo sapiens, U-266 blood cancer cell line
Experimental: The inhibitory effects of the compounds of the present invention against the growth of cancer cells were evaluated as shown below. The cancer cell lines including stomach cancer cell line (AGS), breast cancer cell lines (MDA-MB-231, MDA-MB-468, and BT-549), prostate cancer cell lines (LNCaP and DU-145), colon cancer cell line (HCT116), ovarian cancer cell line (SW626), liver cancer cell line (Hep3B), kidney cancer cell line (ACHN), lung cancer cell line (NCI-H23) and blood cancer cell lines (HEL92.1.7 and U266) were cultured under the protocol provided by each supplier. A medium supplemented with 10 ng/mL of IL-6 was used for LNCaP, a prostate cancer cell line, when treated with a drug. Each type of cells to be used in experiments were sub-cultured in a 96-well plate by counting the exact number of cells using Tali™ Image-based Cytometer (Life Technologies). In a 96-well plate, AGS, HCT116, and DU-145 were employed with 3,000 cells/well; NCI-H23, SW626, Hep3B, ACHN, BT-549, MDA-MB-231, HEL92.1.7, and U266 were employed with 5,000 cells/well; and LNCaP and MDA-MB-468 were employed with 10,000 cells/well. The cells were treated with the compounds listed in Examples which were diluted in various concentrations. Upon completion of the compounds treatment, AGS, HCT116, SW626, DU145, NCI-H23, Hep3B, ACHN, BT-549, LNCaP, HEL92.1.7, and U266 cells were cultured at 37° C. under 5% CO2 for from 72 to 96 hours, and MDA-MB-231 and MDA-MB-468 cells were cultured at 37° C. in air for from 72 to 96 hours. Subsequently, the cells were observed under microscope and drug precipitation and particular findings were investigated and recorded. And then, the 96-well plate was placed at room temperature for 30 minutes, added with 20 μL/well of CellTiter-Glo solution (Cat No. G7573, Promega) and shaken for 10 minutes, followed by being subjected to the measurement using PHERAstar™ microplate reader (BMG LABTECH) according to the supplier's general luminometer protocol. Wells where only culture liquid added without cell plating were used as a negative control, whereas wells where culture liquid containing 0.1% DMSO instead of the compounds listed in Examples were used as a positive control.

T1 sequence (P40763 whole entry): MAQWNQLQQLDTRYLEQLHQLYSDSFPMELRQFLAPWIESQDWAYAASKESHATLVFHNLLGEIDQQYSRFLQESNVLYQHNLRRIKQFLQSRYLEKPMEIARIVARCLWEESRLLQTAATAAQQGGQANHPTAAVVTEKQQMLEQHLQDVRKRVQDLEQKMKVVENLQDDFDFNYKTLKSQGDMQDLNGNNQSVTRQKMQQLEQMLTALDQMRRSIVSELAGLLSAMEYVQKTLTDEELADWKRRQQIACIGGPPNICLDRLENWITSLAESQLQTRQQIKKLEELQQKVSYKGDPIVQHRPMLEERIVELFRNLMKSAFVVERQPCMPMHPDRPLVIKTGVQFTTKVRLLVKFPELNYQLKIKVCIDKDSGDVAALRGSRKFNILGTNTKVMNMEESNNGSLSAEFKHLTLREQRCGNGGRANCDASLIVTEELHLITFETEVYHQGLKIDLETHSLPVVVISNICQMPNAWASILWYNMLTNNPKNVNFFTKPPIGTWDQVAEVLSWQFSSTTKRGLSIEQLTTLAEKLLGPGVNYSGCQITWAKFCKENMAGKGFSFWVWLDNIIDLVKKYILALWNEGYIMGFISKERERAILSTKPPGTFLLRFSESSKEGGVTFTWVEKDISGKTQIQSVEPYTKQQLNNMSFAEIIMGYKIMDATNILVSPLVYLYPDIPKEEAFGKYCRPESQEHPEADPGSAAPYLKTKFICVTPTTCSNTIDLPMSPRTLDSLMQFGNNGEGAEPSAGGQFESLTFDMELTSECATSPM

SMILES	IC50 [1] [µM]	IC50 [2] [µM]	IC50 [3] [µM]	IC50 [4] [µM]	IC50 [5] [µM]
CC(C)Oc1cc(OC(F)(F)F)cc(C(C)(C)c2cc(Cl)cc(NC(=O)c3cc4nc(NS(C)(=O)=O)ccc4s3)c2)c1 [Example 70, N-(3-chloro-5-(2-(3-isopropoxy-5-(trifluoromethoxy)phenyl)propan-2-yl)phenyl)-5-(methylsulfonamido)thieno[3,2-b]pyridine-2-carboxamide]	0.068	0.29	0.12	0.36	0.46
CC(C)COc1cc(OC(F)(F)F)cc(C(C)(C)c2cc(Cl)cc(NC(=O)c3cc4cc(NS(C)(=O)=O)ccc4s3)c2)c1 [Example 72, N-(3-chloro-5-(2-(3-isobutoxy-5-(trifluoromethoxy)phenyl)propan-2-yl)phenyl)-5-(methylsulfonamido)benzo[b]thiophene-2-carboxamide]	0.021	0.034	0.006	0.087	0.1
CC(C)(c1cc(Cl)cc(NC(=O)c2cc3cc(NS(C)(=O)=O)ccc3s2)c1)c1cc(OCC#N)cc(OC(F)(F)F)c1 [Example 77, N-(3-chloro-5-(2-(3-(cyanomethoxy)-5-(trifluoromethoxy)phenyl)propan-2-yl)phenyl)-5-(methylsulfonamido)benzo[b]thiophene-2-carboxamide]	0.12	0.3	0.05	0.068	0.22
COc1cc(OC(F)(F)F)cc(C(C)(C)c2cc(Br)cc(NC(=O)c3cc4cc(NS(C)(=O)=O)cnc4s3)c2)c1 [Example 56, N-(3-bromo-5-(2-(3-methoxy-5-(trifluoromethoxy)phenyl)propan-2-yl)phenyl)-5-(methylsulfonamido)thieno[2,3-b]pyridine-2-carboxamide]	0.072	0.25	0.069	0.3	0.43
CC(C)Oc1cc(OC(F)(F)F)cc(C(C)(C)c2cc(F)cc(NC(=O)c3cc4cc(NS(C)(=O)=O)ccc4s3)c2)c1 [Example 82, N-(3-fluoro-5-(2-(3-isopropoxy-5-(trifluoromethoxy)phenyl)propan-2-yl)phenyl)-5-(methylsulfonamido)benzo[b]thiophene-2-carboxamide]	0.024	0.03	0.008	0.048	0.045
CCCOc1cc(OC(F)(F)F)cc(C(C)(C)c2cc(Cl)cc(NC(=O)c3cc4cc(NS(C)(=O)=O)ccc4s3)c2)c1 [Example 73, N-(3-chloro-5-(2-(3-propoxy-5-(trifluoromethoxy)phenyl)propan-2-yl)phenyl)-5-(methylsulfonamido)benzo[b]thiophene-2-carboxamide]	0.01	0.033	0.006	0.056	0.058
CC(C)(c1cc(Cl)cc(NC(=O)c2cc3cc(NS(C)(=O)=O)ccc3s2)c1)c1cc(OC(F)(F)F)cc(OC(F)(F)C(F)F)c1 [Example 80, N-(3-chloro-5-(2-(3-(1,1,2,2-tetrafluoroethoxy)-5-(trifluoromethoxy)phenyl)propan-2-yl)phenyl)-5-(methylsulfonamido)benzo[b]thiophene-2-carboxamide]	0.016	0.068	0.01	0.057	0.063
CC(C)Oc1cc(CN2CCN(C(=O)OC(C)(C)C)CC2)cc(C(C)(C)c2cc(Br)cc(NC(=O)c3cc4cc(NS(C)(=O)=O)ccc4s3)c2)c1 [Example 123, tert-butyl 4-(3-(2-(3-bromo-5-(5-(methylsulfonamido)benzo[b]thiophene-2-carboxamido)phenyl)propan-2-yl)-5-isopropoxybenzyl)piperazine-1-carboxylate]	0.046	0.15	0.042	0.11	0.13
CC(C)Oc1cc(OC(F)(F)F)cc(C(C)(C)c2cc(Cl)cc(NC(=O)c3cc4cc(NS(C)(=O)=O)ncc4s3)c2)c1 [Example 71, N-(3-chloro-5-(2-(3-isopropoxy-5-(trifluoromethoxy)phenyl)propan-2-yl)phenyl)-5-(methylsulfonamido)thieno[2,3-c]pyridine-2-carboxamide]	0.009	0.091	0.048	0.13	0.17
COc1cc(OC(F)(F)F)cc(C(C)(C)c2cc(Cl)cc(NC(=O)c3cc4cc(NS(C)(=O)=O)cnc4s3)c2)c1 [Example 57, N-(3-chloro-5-(2-(3-methoxy-5-(trifluoromethoxy)phenyl)propan-2-yl)phenyl)-5-(methylsulfonamido)thieno[2,3-b]pyridine-2-carboxamide]	0.067	0.16	0.047	0.18	0.33
CCOc1cc(OC(F)(F)F)cc(C(C)(C)c2cc(Cl)cc(NC(=O)c3cc4cc(NS(C)(=O)=O)ccc4s3)c2)c1 [Example 58, N-(3-chloro-5-(2-(3-ethoxy-5-(trifluoromethoxy)phenyl)propan-2-yl)phenyl)-5-(methylsulfonamido)benzo[b]thiophene-2-carboxamide]	0.007	0.032	0.006	0.074	0.005
CC(C)Oc1cc(CN2CCN(C(=O)C(C)(C)C)CC2)cc(C(C)(C)c2cc(Cl)cc(NC(=O)c3cc4cc(NS(C)(=O)=O)ccc4s3)c2)c1 [Example 127, N-(3-chloro-5-(2-(3-isopropoxy-5-((4-pivaloylpiperazin-1-yl)methyl)phenyl)propan-2-yl)phenyl)-5-(methylsulfonamido)benzo[b]thiophene-2-carboxamide]	0.15	0.14	0.066	0.34	0.43
CC(C)Oc1cc(CN2CCN(c3noc(C(C)C)n3)CC2)cc(C(C)(C)c2cc(Cl)cc(NC(=O)c3cc4cc(NS(C)(=O)=O)ccc4s3)c2)c1 [Example 129, N-(3-chloro-5-(2-(3-isopropoxy-5-((4-(5-isopropyl-1,2,4-oxadiazol-3-yl)piperazin-1-yl)methyl)phenyl)propan-2-yl)phenyl)-5-(methylsulfonamido)benzo[b]thiophene-2-carboxamide]	0.07	0.12	0.06	0.24	0.28
CC(C)Oc1cc(CN2CCN(C3COC3)CC2)cc(C(C)(C)c2cc(Cl)cc(NC(=O)c3cc4cc(NS(C)(=O)=O)ccc4s3)c2)c1 [Example 130, N-(3-chloro-5-(2-(3-isopropoxy-5-((4-(oxetan-3-yl)piperazin-1-yl)methyl)phenyl)propan-2-yl)phenyl)-5-(methylsulfonamido)benzo[b]thiophene-2-carboxamide]	0.308	0.76	0.17	> 1.1	0.74
CCOc1cc(OC(F)(F)F)cc(C(C)(C)c2cc(Cl)cc(NC(=O)c3cc4ccc(NS(C)(=O)=O)cc4[nH]3)c2)c1 [Example 59, N-(3-chloro-5-(2-(3-ethoxy-5-(trifluoromethoxy)phenyl)propan-2-yl)phenyl)-6-(methylsulfonamido)-1H-indole-2-carboxamide]	0.021	0.12	0.039	0.42	0.16
CC(C)Oc1cc(OC(F)(F)F)cc(C(C)(C)c2cc(Cl)cc(NC(=O)c3cc4cc(NS(C)(=O)=O)cnc4s3)c2)c1 [Example 69, N-(3-chloro-5-(2-(3-isopropoxy-5-(trifluoromethoxy)phenyl)propan-2-yl)phenyl)-5-(methylsulfonamido)thieno[2,3-b]pyridine-2-carboxamide]	0.052	0.058	0.052	0.09	0.14
